Measured values from ChEMBL document CHEMBL1926576, “Fragment based lead discovery of small molecule inhibitors for the EPHA4 receptor tyrosine kinase” (Eur J Med Chem, 2012).

Legend:
[1] = target: NUAK family SNF1-like kinase 1 (Homo sapiens) (UniProt O60285); test: Inhibition of NUAK1 assessed as residual activity at 10 uM using [33P-ATP] by radiometric filter binding assay
[2] = target: Serine/threonine-protein kinase PAK 2 (Homo sapiens) (UniProt Q13177); test: Inhibition of PAK2 assessed as residual activity at 10 uM using [33P-ATP] by radiometric filter binding assay
[3] = target: Serine/threonine-protein kinase PAK 4 (Homo sapiens) (UniProt O96013); test: Inhibition of PAK4 assessed as residual activity at 10 uM using [33P-ATP] by radiometric filter binding assay
[4] = target: Protein kinase C gamma type (Homo sapiens) (UniProt P05129); test: Inhibition of PKCgamma assessed as residual activity at 10 uM using [33P-ATP] by radiometric filter binding assay
[5] = target: Protein kinase C zeta type (Homo sapiens) (UniProt Q05513); test: Inhibition of PKCzeta assessed as residual activity at 10 uM using [33P-ATP] by radiometric filter binding assay
Protein kinase C zeta type (Homo sapiens), sequence (Q05513 whole entry): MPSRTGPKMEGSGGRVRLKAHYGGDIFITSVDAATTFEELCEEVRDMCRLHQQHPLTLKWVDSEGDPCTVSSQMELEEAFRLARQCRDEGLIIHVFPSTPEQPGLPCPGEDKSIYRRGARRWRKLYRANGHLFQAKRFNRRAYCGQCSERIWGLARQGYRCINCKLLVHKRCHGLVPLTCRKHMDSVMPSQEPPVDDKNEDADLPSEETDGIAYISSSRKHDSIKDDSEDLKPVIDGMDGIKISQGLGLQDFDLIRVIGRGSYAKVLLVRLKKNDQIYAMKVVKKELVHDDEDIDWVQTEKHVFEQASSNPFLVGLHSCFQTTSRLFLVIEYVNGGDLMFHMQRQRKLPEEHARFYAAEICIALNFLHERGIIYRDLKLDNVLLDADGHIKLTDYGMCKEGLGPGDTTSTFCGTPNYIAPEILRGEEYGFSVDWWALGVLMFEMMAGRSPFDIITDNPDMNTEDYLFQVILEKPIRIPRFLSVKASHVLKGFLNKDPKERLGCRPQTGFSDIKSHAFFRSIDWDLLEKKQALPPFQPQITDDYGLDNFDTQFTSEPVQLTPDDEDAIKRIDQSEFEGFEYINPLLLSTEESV

[6] = target: MAP kinase-activated protein kinase 5 (Homo sapiens) (UniProt Q8IW41); test: Inhibition of PRAK assessed as residual activity at 10 uM using [33P-ATP] by radiometric filter binding assay
[7] = target: SRSF protein kinase 1 (Homo sapiens) (UniProt Q96SB4); test: Inhibition of SRPK1 assessed as residual activity at 10 uM using [33P-ATP] by radiometric filter binding assay
[8] = target: Mitogen-activated protein kinase kinase kinase 7 (Homo sapiens) (UniProt O43318); test: Inhibition of TAK1 assessed as residual activity at 10 uM using [33P-ATP] by radiometric filter binding assay
[9] = target: Serine/threonine-protein kinase TAO1 (Homo sapiens) (UniProt Q7L7X3); test: Inhibition of TAO1 assessed as residual activity at 10 uM using [33P-ATP] by radiometric filter binding assay
[10] = target: Angiopoietin-1 receptor (Homo sapiens) (UniProt Q02763); test: Inhibition of TIE2 assessed as residual activity at 10 uM using [33P-ATP] by radiometric filter binding assay
[11] = target: Serine/threonine-protein kinase tousled-like 1 (Homo sapiens) (UniProt Q9UKI8); test: Inhibition of TLK1 assessed as residual activity at 10 uM using [33P-ATP] by radiometric filter binding assay
[12] = target: High affinity nerve growth factor receptor (Homo sapiens) (UniProt P04629); test: Inhibition of TrkA assessed as residual activity at 10 uM using [33P-ATP] by radiometric filter binding assay
High affinity nerve growth factor receptor (Homo sapiens), sequence (P04629 33-796 limits assumed): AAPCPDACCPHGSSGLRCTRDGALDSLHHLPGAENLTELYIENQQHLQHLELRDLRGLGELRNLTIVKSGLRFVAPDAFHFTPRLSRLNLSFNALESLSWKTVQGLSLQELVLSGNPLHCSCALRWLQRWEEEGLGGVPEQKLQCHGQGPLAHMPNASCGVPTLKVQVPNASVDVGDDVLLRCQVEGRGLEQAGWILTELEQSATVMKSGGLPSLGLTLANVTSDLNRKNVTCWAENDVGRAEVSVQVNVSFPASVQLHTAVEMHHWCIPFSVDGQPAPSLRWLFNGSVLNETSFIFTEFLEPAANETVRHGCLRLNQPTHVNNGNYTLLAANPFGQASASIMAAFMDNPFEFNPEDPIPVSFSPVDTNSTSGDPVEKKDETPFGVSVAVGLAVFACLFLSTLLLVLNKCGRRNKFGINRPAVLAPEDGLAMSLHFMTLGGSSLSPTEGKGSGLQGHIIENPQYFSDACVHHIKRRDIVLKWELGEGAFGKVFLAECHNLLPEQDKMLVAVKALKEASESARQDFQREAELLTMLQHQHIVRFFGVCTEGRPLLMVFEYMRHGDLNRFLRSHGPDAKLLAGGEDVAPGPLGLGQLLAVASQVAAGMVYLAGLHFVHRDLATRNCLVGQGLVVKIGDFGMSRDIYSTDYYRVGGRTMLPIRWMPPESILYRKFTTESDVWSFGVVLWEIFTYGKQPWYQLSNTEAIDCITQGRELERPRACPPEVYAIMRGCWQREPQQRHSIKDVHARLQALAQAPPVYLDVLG

[13] = target: Tyrosine-protein kinase Yes (Homo sapiens) (UniProt P07947); test: Inhibition of YES1 assessed as residual activity at 10 uM using [33P-ATP] by radiometric filter binding assay
Tyrosine-protein kinase Yes (Homo sapiens), sequence (P07947 2-543 limits assumed): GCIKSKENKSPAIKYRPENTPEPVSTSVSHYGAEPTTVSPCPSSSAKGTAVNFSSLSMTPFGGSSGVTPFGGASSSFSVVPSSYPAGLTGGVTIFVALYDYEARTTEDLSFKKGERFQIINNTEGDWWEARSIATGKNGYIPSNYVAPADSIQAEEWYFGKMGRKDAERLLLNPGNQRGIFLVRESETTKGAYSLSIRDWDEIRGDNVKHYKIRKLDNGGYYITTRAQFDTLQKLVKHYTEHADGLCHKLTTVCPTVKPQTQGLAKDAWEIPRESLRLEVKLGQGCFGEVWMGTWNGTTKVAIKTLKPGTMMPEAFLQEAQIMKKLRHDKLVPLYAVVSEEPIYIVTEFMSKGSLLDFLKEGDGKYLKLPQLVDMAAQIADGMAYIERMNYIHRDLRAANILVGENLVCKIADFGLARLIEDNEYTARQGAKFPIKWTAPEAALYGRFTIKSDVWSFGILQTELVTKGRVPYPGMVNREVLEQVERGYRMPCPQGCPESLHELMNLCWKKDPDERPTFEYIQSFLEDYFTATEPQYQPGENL

[14] = target: Mitogen-activated protein kinase kinase kinase 5 (Homo sapiens) (UniProt Q99683); test: Inhibition of ASK1 assessed as residual activity at 10 uM using [33P-ATP] by radiometric filter binding assay
[15] = target: Tyrosine-protein kinase ABL1 (Homo sapiens) (UniProt P00519); test: Inhibition of ABL assessed as residual activity at 10 uM using [33P-ATP] by radiometric filter binding assay
Tyrosine-protein kinase ABL1 (Homo sapiens), sequence (P00519 whole entry): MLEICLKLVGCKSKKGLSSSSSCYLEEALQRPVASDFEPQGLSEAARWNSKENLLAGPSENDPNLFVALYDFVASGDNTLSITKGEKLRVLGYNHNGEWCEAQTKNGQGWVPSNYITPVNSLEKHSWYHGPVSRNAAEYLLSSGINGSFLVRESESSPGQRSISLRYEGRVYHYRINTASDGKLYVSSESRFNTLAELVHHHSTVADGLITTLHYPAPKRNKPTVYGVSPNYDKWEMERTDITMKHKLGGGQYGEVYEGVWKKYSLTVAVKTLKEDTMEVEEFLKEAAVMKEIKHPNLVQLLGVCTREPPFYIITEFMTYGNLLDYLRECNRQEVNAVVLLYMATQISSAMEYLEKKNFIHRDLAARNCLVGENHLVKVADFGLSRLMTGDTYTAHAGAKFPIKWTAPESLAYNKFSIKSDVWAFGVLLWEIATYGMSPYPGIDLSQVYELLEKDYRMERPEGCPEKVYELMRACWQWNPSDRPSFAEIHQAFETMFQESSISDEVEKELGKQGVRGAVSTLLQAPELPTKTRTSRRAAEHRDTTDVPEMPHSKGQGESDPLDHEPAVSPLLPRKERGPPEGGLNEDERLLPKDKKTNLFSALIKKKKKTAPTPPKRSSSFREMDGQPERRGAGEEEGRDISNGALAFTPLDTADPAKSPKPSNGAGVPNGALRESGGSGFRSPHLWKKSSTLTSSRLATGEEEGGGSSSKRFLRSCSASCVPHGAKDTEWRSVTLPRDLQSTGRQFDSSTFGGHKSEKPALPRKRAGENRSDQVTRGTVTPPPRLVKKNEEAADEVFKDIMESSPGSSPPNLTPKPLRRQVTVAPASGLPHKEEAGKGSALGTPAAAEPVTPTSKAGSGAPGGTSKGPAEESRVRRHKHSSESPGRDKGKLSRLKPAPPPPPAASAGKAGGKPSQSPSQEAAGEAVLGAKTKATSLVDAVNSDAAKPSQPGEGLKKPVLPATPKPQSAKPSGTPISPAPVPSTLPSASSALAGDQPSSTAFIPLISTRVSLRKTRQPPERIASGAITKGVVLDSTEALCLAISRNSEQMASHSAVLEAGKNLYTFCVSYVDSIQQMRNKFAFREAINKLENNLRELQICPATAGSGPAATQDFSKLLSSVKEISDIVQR

[16] = target: Aurora kinase A (Homo sapiens) (UniProt O14965); test: Inhibition of aurora-A assessed as residual activity at 10 uM using [33P-ATP] by radiometric filter binding assay
[17] = target: Serine/threonine-protein kinase BRSK1 (Homo sapiens) (UniProt Q8TDC3); test: Inhibition of BRSK1 assessed as residual activity at 10 uM using [33P-ATP] by radiometric filter binding assay
[18] = target: Calcium/calmodulin-dependent protein kinase type 1 (Homo sapiens) (UniProt Q14012); test: Inhibition of CAMK1 assessed as residual activity at 10 uM using [33P-ATP] by radiometric filter binding assay
[19] = target: Ephrin type-B receptor 1 (Homo sapiens) (UniProt P54762); test: Inhibition of EPHB1 assessed as residual activity at 10 uM using [33P-ATP] by radiometric filter binding assay
[20] = target: Mitogen-activated protein kinase 3 (Homo sapiens) (UniProt P27361); test: Inhibition of ERK1 assessed as residual activity at 10 uM using [33P-ATP] by radiometric filter binding assay
[21] = target: Mitogen-activated protein kinase kinase kinase kinase 2 (Homo sapiens) (UniProt Q12851); test: Inhibition of GCK assessed as residual activity at 10 uM using [33P-ATP] by radiometric filter binding assay
[22] = target: Homeodomain-interacting protein kinase 3 (Homo sapiens) (UniProt Q9H422); test: Inhibition of HIPK3 assessed as residual activity at 10 uM using [33P-ATP] by radiometric filter binding assay
[23] = target: Interleukin-1 receptor-associated kinase 1 (Homo sapiens) (UniProt P51617); test: Inhibition of IRAK1 assessed as residual activity at 10 uM using [33P-ATP] by radiometric filter binding assay
[24] = target: Insulin receptor-related protein (Homo sapiens) (UniProt P14616); test: Inhibition of IRR assessed as residual activity at 10 uM using [33P-ATP] by radiometric filter binding assay
[25] = target: Mitogen-activated protein kinase 8 (Homo sapiens) (UniProt P45983); test: Inhibition of JNK1 assessed as residual activity at 10 uM using [33P-ATP] by radiometric filter binding assay
[26] = target: Serine/threonine-protein kinase MARK1 (Homo sapiens) (UniProt Q9P0L2); test: Inhibition of MARK1 assessed as residual activity at 10 uM using [33P-ATP] by radiometric filter binding assay
[27] = target: Maternal embryonic leucine zipper kinase (Homo sapiens) (UniProt Q14680); test: Inhibition of MELK assessed as residual activity at 10 uM using [33P-ATP] by radiometric filter binding assay
[28] = target: Dual specificity mitogen-activated protein kinase kinase 6 (Homo sapiens) (UniProt P52564); test: Inhibition of MKK6 assessed as residual activity at 10 uM using [33P-ATP] by radiometric filter binding assay
[29] = target: Mitogen-activated protein kinase kinase kinase 9 (Homo sapiens) (UniProt P80192); test: Inhibition of MLK1 assessed as residual activity at 10 uM using [33P-ATP] by radiometric filter binding assay
[30] = target: Serine/threonine-protein kinase 3 (Homo sapiens) (UniProt Q13188); test: Inhibition of MST2 assessed as residual activity at 10 uM using [33P-ATP] by radiometric filter binding assay
Serine/threonine-protein kinase 3 (Homo sapiens), sequence (Q13188 whole entry): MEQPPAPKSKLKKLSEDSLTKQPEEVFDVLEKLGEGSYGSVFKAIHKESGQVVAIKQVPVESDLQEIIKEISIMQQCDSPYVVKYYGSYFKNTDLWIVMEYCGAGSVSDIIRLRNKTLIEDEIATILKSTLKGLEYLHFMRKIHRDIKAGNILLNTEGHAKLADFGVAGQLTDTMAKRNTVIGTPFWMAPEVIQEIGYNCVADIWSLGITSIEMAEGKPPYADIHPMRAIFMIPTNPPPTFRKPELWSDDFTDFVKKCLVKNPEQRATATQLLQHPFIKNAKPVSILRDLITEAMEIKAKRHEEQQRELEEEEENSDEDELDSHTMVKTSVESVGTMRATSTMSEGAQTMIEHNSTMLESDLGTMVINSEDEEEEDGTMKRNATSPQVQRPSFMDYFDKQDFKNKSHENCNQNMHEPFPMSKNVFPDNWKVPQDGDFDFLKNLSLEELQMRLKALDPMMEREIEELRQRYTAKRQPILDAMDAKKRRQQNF

[31] = target: Mitogen-activated protein kinase kinase kinase 1 (Homo sapiens) (UniProt Q13233); test: Inhibition of MEKK1 assessed as residual activity at 10 uM using [33P-ATP] by radiometric filter binding assay
Mitogen-activated protein kinase kinase kinase 1 (Homo sapiens), sequence (Q13233 whole entry, looked up): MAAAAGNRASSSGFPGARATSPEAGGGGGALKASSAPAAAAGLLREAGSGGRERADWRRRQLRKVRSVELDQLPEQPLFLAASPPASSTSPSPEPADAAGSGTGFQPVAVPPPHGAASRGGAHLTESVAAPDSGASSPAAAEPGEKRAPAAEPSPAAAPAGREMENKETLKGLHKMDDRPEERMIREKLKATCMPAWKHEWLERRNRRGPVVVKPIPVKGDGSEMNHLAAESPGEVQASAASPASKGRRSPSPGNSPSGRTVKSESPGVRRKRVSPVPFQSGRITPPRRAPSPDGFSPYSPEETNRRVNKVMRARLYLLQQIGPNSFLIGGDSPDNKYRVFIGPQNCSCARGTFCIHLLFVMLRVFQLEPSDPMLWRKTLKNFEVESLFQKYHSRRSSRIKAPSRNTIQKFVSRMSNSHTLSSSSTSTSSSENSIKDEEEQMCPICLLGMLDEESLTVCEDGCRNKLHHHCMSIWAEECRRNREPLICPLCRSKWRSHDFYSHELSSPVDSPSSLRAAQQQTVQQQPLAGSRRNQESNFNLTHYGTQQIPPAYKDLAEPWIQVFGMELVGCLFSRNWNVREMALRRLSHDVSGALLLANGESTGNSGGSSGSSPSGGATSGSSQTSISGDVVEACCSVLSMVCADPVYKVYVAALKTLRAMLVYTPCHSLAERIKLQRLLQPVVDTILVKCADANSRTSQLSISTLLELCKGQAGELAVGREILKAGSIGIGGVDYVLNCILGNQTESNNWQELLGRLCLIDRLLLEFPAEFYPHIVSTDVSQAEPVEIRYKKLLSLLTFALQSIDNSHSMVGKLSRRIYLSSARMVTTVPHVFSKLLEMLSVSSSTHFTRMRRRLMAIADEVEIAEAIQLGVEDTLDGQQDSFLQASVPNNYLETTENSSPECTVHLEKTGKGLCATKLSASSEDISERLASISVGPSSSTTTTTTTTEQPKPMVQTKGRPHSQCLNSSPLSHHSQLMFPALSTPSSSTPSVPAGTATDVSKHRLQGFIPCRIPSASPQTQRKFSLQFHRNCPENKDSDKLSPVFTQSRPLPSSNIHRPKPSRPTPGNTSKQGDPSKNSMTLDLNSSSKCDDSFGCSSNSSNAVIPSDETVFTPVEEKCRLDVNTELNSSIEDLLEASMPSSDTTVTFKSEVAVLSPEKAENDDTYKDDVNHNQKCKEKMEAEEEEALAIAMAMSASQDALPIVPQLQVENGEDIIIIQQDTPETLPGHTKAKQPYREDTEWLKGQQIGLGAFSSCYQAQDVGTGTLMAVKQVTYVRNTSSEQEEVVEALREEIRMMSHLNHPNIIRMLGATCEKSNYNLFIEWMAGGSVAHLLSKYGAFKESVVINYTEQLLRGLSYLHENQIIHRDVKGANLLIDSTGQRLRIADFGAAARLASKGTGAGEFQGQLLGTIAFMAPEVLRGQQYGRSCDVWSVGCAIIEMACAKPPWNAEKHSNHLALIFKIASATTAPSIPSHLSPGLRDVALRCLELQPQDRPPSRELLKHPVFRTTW

[32] = target: Serine/threonine-protein kinase 16 (Homo sapiens) (UniProt O75716); test: Inhibition of MPSK1 assessed as residual activity at 10 uM using [33P-ATP] by radiometric filter binding assay

- Activity [1]: 79%
- Activity [2]: 79%
- Activity [3]: 82%
- Activity [4]: 108%
- Activity [5]: 106%
- Activity [6]: 97%
- Activity [7]: 89%
- Activity [8]: 96%
- Activity [9]: 37%
- Activity [10]: 65%
- Activity [11]: 99%
- Activity [12]: 45%
- Activity [13]: 18%
- Activity [14]: 99%
- Activity [15]: 45%
- Activity [16]: 68%
- Activity [17]: 52%
- Activity [18]: 75%
- Activity [19]: 4%
- Activity [20]: 97%
- Activity [21]: 59%
- Activity [22]: 94%
- Activity [23]: 87%
- Activity [24]: 77%
- Activity [25]: 94%
- Activity [26]: 86%
- Activity [27]: 64%
- Activity [28]: 86%
- Activity [29]: 63%
- Activity [30]: 66%
- Activity [31]: 115%
- Activity [32]: 71%
SMILES: Cc1ccc(F)cc1-c1nc2[nH]nc(N)c2c2c1CCCC2
